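Dose response: 5 concentrations. Exposure: 48 h. Format: 96-well plates. Endpoint: linear interpolation; highest concentration if not reached. Abbreviation: GI50, concentration required for 50% inhibition of growth.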 Active and inactive are the calls of the source. Cut-off read from the data, not from the text of the source: active = GI50 up to about 1.1 µM and inactive = higher.
Assays:
Experiment in all cases: NCI tumour cell line growth inhibition, 48 h
[1] = test system: A549
[2] = test system: CAKI-1
[3] = test system: COLO 205
[4] = test system: HL-60
[5] = test system: K562
[6] = test system: LOX IMVI
[7] = test system: NCI-H460
[8] = test system: NCI-H522
[9] = test system: OVCAR-4
[10] = test system: SF-295
[11] = test system: SK-MEL-2
[12] = test system: SNB-19
[13] = test system: SNB-75
[14] = test system: SW-620
[15] = test system: UACC-257
[16] = test system: UACC-62

SMILES	GI50 [1]	GI50 [2]	GI50 [3]	GI50 [4]	GI50 [5]	GI50 [6]	GI50 [7]	GI50 [8]	GI50 [9]	GI50 [10]	GI50 [11]	GI50 [12]	GI50 [13]	GI50 [14]	GI50 [15]	GI50 [16]
OCCN(CCO)c1ncnc2c1sc(=S)n2-c1ccccc1	> 100 µM (inactive)	> 100 µM (inactive)	> 100 µM (inactive)	> 100 µM (inactive)	> 100 µM (inactive)	> 100 µM (inactive)	> 100 µM (inactive)	> 100 µM (inactive)	> 100 µM (inactive)	> 100 µM (inactive)	> 100 µM (inactive)	> 100 µM (inactive)	> 100 µM (inactive)	> 100 µM (inactive)	> 100 µM (inactive)	> 100 µM (inactive)
CCOC(=O)C12CCSC1C1(C#N)C(C#N)=CC2(N=P(c2ccccc2)(c2ccccc2)c2ccccc2)n2c(=O)n(-c3ccccc3)c(=O)n21 (configuration not stated)	34.9 µM (inactive)	28.6 µM (inactive)	37.8 µM (inactive)	26.1 µM (inactive)	33.9 µM (inactive)	39.9 µM (inactive)	37.7 µM (inactive)	29.5 µM (inactive)	21.9 µM (inactive)	36.6 µM (inactive)	48.6 µM (inactive)	39.3 µM (inactive)	47 µM (inactive)	64 µM (inactive)	33.6 µM (inactive)	27.5 µM (inactive)
N=C(NNS(=O)(=O)c1ccccc1)Oc1ccc(Br)cc1Br	> 100 µM (inactive)	> 100 µM (inactive)	> 100 µM (inactive)	92.7 µM (inactive)	90.6 µM (inactive)	> 100 µM (inactive)	> 100 µM (inactive)	67 µM (inactive)	> 100 µM (inactive)	> 100 µM (inactive)	> 100 µM (inactive)	> 100 µM (inactive)	94.2 µM (inactive)	11.9 µM (inactive)	> 100 µM (inactive)	> 100 µM (inactive)
Cc1nc(Nc2ccccc2)sc1C(=O)CC(=O)C(=O)NC12CC3CC(CC(C3)C1)C2	> 100 µM (inactive)	65.2 µM (inactive)	> 100 µM (inactive)	92.3 µM (inactive)	> 100 µM (inactive)	50.4 µM (inactive)	> 100 µM (inactive)	79.6 µM (inactive)	> 100 µM (inactive)	71.3 µM (inactive)	> 100 µM (inactive)	> 100 µM (inactive)	33.9 µM (inactive)	> 100 µM (inactive)	> 100 µM (inactive)	41.4 µM (inactive)
N#Cc1ccc(Nc2cnc3cc(N)ccc3n2)cc1	> 100 µM (inactive)	66.5 µM (inactive)	> 100 µM (inactive)	14.9 µM (inactive)	28.3 µM (inactive)	75.2 µM (inactive)	58.1 µM (inactive)	48.2 µM (inactive)	> 100 µM (inactive)	> 100 µM (inactive)	> 100 µM (inactive)	71.4 µM (inactive)	> 100 µM (inactive)	> 100 µM (inactive)	> 100 µM (inactive)	83.4 µM (inactive)
CCN(CCCl)CCCCCNc1c2ccccc2nc2ccc(OC)cc12	0.373 µM (active)	2.84 µM (inactive)	1.1 µM (active)	0.0411 µM (active)	0.149 µM (active)	0.178 µM (active)	0.07 µM (active)	0.628 µM (active)	1.01 µM (active)	1.47 µM (inactive)	1.09 µM (active)	1.16 µM (inactive)	0.942 µM (active)	0.154 µM (active)	3.22 µM (inactive)	0.402 µM (active)
COc1cc2c(cc1OC)C(Cc1ccc(Oc3cc(CC4c5cc(OC)c(OC)cc5CCN4C)ccc3O)cc1)N(C)CC2 (configuration not stated)	35.2 µM (inactive)	21.7 µM (inactive)	11.3 µM (inactive)	13.4 µM (inactive)	10.2 µM (inactive)	17.4 µM (inactive)	27.9 µM (inactive)	12 µM (inactive)	20.5 µM (inactive)	26.4 µM (inactive)	16.1 µM (inactive)	40.6 µM (inactive)	14.8 µM (inactive)	16.6 µM (inactive)	16.2 µM (inactive)	17.4 µM (inactive)

Source: ChEMBL document CHEMBL1201862, “PubChem BioAssay data set” (2004)
